# Read-outs that look alike come from different tables or passages of the source.
# How the values were obtained:
# [1] = biological target: T1, IL-6 receptor (Homo sapiens, UniProt P08887); details: preliminary clinical data; cited from earlier work
# T1 construct: host or cells: patients (in vivo)
# [2] = system: chemically induced acute hepatitis; details: 25 mg/kg; cited from earlier work
# [3] = system: LPS-induced acute lung injury; details: cited from earlier work
# [4] = system: CD83 dendritic cell activation marker; details: dendritic cells from individuals with HIV infection; cited from earlier work
# [5] = system: human neutrophils; details: cited from earlier work
# [6] = cited from earlier work
# [7] = system: microglial cells; details: 1-16 μmol/l; cited from earlier work
# [8] = system: ischemia-reperfusion-induced kidney injury; details: 10 mg/kg after induced kidney injury; cited from earlier work
# [9] = system: IL-6 secretion; details: majority of cellular models; cited from earlier work
# [10] = mice; 120 mg/kg single dose; cited from earlier work
# [11] = system: activated memory T cell line; details: 1-5 μmol/l, cited from earlier work
# [12] = systemic exposure after i.p. and oral application in mice and rats (Deiana et al.); format: in vivo; details: 20 mg/kg, assuming dose-proportional plasma concentrations
# Experimental: A comparative investigation for systemic exposure after i.p. and oral application of CBD in mice and rats has shown that 120 mg/kg as a single dose leads to a maximum plasma concentration of 14,000 ng/ml in mice (S. Deiana et al. (2012). Plasma and brain pharmacokinetic profile of cannabidiol (CBD), cannabidivarine (CBDV), Delta(9)-tetrahydrocannabivarin (THCV) and cannabigerol (CBG) in rats and mice following oral and intraperitoneal administration and CBD action on obsessive-compulsive behaviour. Psychopharmacology (Berl) 219(3): 859-73).
# [13] = system: human mononuclear cells; details: nanomolar or micromolar concentrations; cited from earlier work
# [14] = system: LPS-induced acute lung injury; details: 20 mg/kg, 6 h after LPS; cited from earlier work
# [15] = system: SARS-CoV-2 virus (isolate BetaCoV/Germany/BavPat1/2020 p. 1); test: antiviral assay, Vero E6 cells with SARS-CoV-2, focus forming units; format: cell-based; details: 24 h
# [16] = healthy rats, cited from earlier work
# T1 sequence (P08887 20-468): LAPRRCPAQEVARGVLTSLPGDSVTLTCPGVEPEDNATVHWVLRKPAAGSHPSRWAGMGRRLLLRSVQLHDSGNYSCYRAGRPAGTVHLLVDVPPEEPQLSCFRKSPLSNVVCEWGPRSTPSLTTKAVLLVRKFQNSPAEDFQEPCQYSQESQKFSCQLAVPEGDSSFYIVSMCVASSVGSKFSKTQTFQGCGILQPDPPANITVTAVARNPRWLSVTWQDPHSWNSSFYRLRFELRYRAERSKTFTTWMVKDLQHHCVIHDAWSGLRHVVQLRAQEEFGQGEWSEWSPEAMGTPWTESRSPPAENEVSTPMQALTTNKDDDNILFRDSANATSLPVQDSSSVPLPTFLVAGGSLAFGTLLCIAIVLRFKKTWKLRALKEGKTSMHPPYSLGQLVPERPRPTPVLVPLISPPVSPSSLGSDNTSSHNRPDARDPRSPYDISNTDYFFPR
compound,measurement,setting,value
tocilizumab: humanized monoclonal antibody against the IL-6 receptor,clinical effect in patients with severe SARS-CoV-2 pneumonia,[1],beneficial effects
"C=C(C)[C@@H]1CCC(C)=C[C@H]1c1c(O)cc(CCCCC)cc1O [CBD, 2-[(1R,6R)-3-methyl-6-(1-methylethenyl)-2-cyclohexen-1-yl]-5-pentyl-1,3-benzenediol]",expression of MDSCs,[2],induces
same,"pro-inflammatory cytokines such as IL-2, TNF-α, and IL-6",[2],reduction
same,number of leukocytes including macrophages and neutrophils in bronchoalveolar lavage fluid,"[3]; 20 mg/kg, mice after LPS-induced lung inflammation",decreases
same,"total leukocytes migration, myeloperoxidase activity, pro-inflammatory cytokine production including TNF-α and IL-6 and vascular permeability","[3]; 0.3-80 mg/kg intraperitoneal, 60 minutes before LPS instillation",significantly decreased
same,dose at which effects reached a nearly maximum extent,"[3]; prophylactic application, intraperitoneal",20 mg/kg
same,CD83 dendritic cell activation marker,[4],suppresses
same,migration of human neutrophils,[5],inhibits
same,log P,[6],about 6.1
same,apoptosis in microglial cells,[7],induces apoptosis
same,effect on induced kidney injury (Treg17/Th17 levels),[8],renoprotective
same,effective concentration for suppressive effect on IL-6 secretion,[9],~5 µM
same,maximum plasma concentration,[10],"14,000 ng/ml"
same,autoantigen-specific Th17 cell phenotype (IL-17),[11]; dose-dependently,reduced
same,IL-6 production and secretion,[11],decreased
same,production of IL-10,[11],increased
same,target peak exposure,[12],"2,300 ng/ml"
same,release of pro-inflammatory cytokines,[13],suppressed
same,"mechanical lung function, leukocyte migration, myeloperoxidase activity, vascular permeability, cytokines/chemokines",[14],improved mechanical lung function
same,FFU values (viral activity of SARS-CoV-2 in vitro),[15]; 0.25-5 μM,reduce the FFU values in a dose dependent manner
same,IC50,"[15]; Severe acute respiratory syndrome coronavirus 2, Vero C1008, Vero E6 cells, 5 μM values excluded, read-out: IC50 of inhibition of viral activity",789 nM
same,numbers of NK cells and NKT cells,[16]; 2.5 mg/kg per day,increased
same,numbers of NK cells and NKT cells,[16]; 5 mg/kg per day,not affected
same,number of T cells including T helper cells and cytotoxic T cells and of B cells,[16]; daily 5 mg/kg,significantly reduced

# From patent publication US20230181485A1, “Uses and Formulations of Cannabinoids” (priority 2020, published 2023)
